These results are taken from patent US20040054130A1, “Insulin potentiating peptides” (priority 2000, published 2004).

Square brackets hold non-standard residues; d marks the D form. Ends that are not written are not given here.

Assay [1] deals with C57BL/6J ob/ob mice. As to the kind of experiment: Chronic administration (14 day mini-pump): body weight, food intake, plasma glucose. The class given is in vivo, mouse. Here is the method:
The effects of chronic administration of peptide 3 in the C57Bl/6J ob/ob diabetic model were evaluated by measurements of a number of parameters, including body weight, food intake, plasma glucose levels, plasma insulin levels, intraperitoneal glucose tolerance test and glucose uptake by adipose tissue (ex vivo). Male and female C57BL/6J ob/ob mice aged 12-15 weeks old were used. Fasting blood glucose levels were determined for all mice 14 days prior to experimentation. Only mice with fasting blood glucose levels >7.0 mmol/l were used in the study. Mice selected for this experiment were initially fasted for 4 hours, then anaesthetized with a single injection of sodium pentobarbitone (35 mg/kg). A blood sample was collected from each mouse by eye-bleed for the assessment of plasma glucose and insulin levels (day 0). Collected blood samples were stored at −20° C. until analysis was performed. A single Alzet mini-pump (#1002, Alzet, USA) containing either sterile saline (100 μl; n=14) or peptide 3 (20 μmol/kg dissolved in 100 μl saline; n=14) was inserted under the skin between the scapula of the mice. The incision was clamped and disinfected using iodine. The pumps were left for 14 days, and 5 body-weight, and food measurements were recorded during this period, at days 0, 4, 7, 10 and 14. Blood samples were collected on day 0 and 14 days post-saline (n=5) or peptide 3 (n=4) administration for plasma glucose analysis. The results reported below are expresses as mean +/− standard error.

The test system of assay [2] is C57BL/6J ob/ob mice. As to the kind of experiment: Intraperitoneal glucose tolerance test (IPGTT) after chronic administration. The class given is in vivo, mouse. Here is the method: An intraperitoneal glucose tolerance test was conducted to determine whether the clearance of a glucose load was enhanced. […], five receiving saline and five receiving peptide 3. At 14 days after chronic administration of saline or peptide 3, mice were fasted for 4 hours, then anaesthetized and eye-bled for day 14 plasma metabolite analysis. Half of each saline or peptide 3 treatment group was given a single intraperitoneal injection of glucose (1 g/kg dissolved in saline), and the other half saline (equivalent dose). Mice were eye-bled at 30, 60 and 120 minutes after glucose administration, and blood glucose levels were determined.

[3] abbreviates: 20 μmol/kg by mini-pump, 14 days.

Consider “Arg-D-Ala-Phe-Phe-NH2 (R[dA]FF-NH2; N-terminus assumed; SMILES C[C@@H](NC(=O)[C@@H](N)CCCNC(=N)N)C(=O)N[C@@H](Cc1ccccc1)C(=O)N[C@@H](Cc1ccccc1)C(N)=O) [Peptide 3]”, for which, in the assay with C57BL/6J ob/ob mice [1] (setting [3]), the “body weight gain vs saline-infused mice” value was “no significant difference” and the “food intake vs saline-infused mice” value is on record as “no significant difference”. Besides, in the assay with C57BL/6J ob/ob mice [1] (continuous infusion 14 days (P<0.025)), the “plasma glucose levels vs saline-infused control mice” value is recorded as “significantly decreased”. In addition, the “reduction in plasma glucose levels” value with C57BL/6J ob/ob mice [1] (day 0 to day 14, 4 h fasted) turned out to be 11.60 ± 3.63 mmol/L. In the assay with C57BL/6J ob/ob mice [2] (30 min after 1 g/kg glucose i.p.), the “increase in plasma glucose after glucose bolus” value was determined as 115%. In addition, the “reduction of blood glucose compared to saline-treated mice” value with C57BL/6J ob/ob mice [2] (120 min after glucose injection) was 47%. The “lower basal blood glucose level compared to saline-treated mice” value in the assay on C57BL/6J ob/ob mice [2] (prior to glucose injection, day 14) was determined as 46.1%.
